Results reported in patent publication US20240246968A1, “SMALL MOLECULE INHIBITORS OF KRAS G12C MUTANT” (Merck Sharp & Dohme LLC, priority 2021, published 2024).

Key:
[1] = tested on: MIA PaCa-2 cells; experiment: Growth inhibition activity on KRAS-G12C mutant cell line (MIA PaCa-2), CellTiter-Glo 3D; type: cell-based, human; settings: MIA PaCa-2, 3-day culture with compound
Outline: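 Luminescence readout (CellTiter-Glo 3D) after 3 days of compound treatment at 37 °C, 5% CO2, 0.2% final DMSO, gave % growth inhibition versus no-compound wells, from which IC50 (nM) was derived; cells had been plated in 10% FBS RPMI1640 one day before dosing.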

[2] = target: T1, interaction between recombinant K-Ras4B G12C mutant protein and cRAF RAS-binding domain (cRAF-RBD) (Homo sapiens, UniProt P01116, G12C); experiment: Inhibitory activity on interaction between KRAS G12C and cRAF (Alpha technology); type: biochemical; settings: GMPPNP-bound KRAS G12C incubated with compound at 25° C. for 1 hour, then cRAF-RBD; Alpha signal
T1 construct: made in house; host or cells: E. coli
Outline: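 Alpha readout of cRAF-RBD (aa 50-132) binding to KRAS G12C (aa 1-169) after 1.5 h RT, following 1 h, 25° C compound preincubation with GMPPNP-bound protein (pH 7.5 Tris, 1 mM MgCl2, TCEP, Tween 20). IC50 fitted from titrations, with GDP-bound KRAS as 100% and DMSO as 0% inhibition.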

[3] = target: Gppcp-bound recombinant K-Ras4B G12C mutant protein (amino acids 1-169, C51S/C80L/C118S) (Homo sapiens, UniProt P01116, C118S/C51S/C80L/G12C); experiment: KRASG12C binding assay (LC-MS, compound binding rate); settings: test compound final concentration 0.5 μM, 25° C., 1 hour
Outline: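 Covalent adduct formation measured by deconvoluted intact-mass LC-MS after 1 h at 25 °C with compound at 0.5 μM final and 50 nM Gppcp-loaded KRAS G12C (residues 1-169, C51S/C80L/C118S). Buffer: TBS, 0.1 mM TCEP, 0.25 mM MgCl2, 50 μM Gppcp. Binding % = one-molecule adduct/(unbound + all adducts), binned A ≥80, B 60–80, C 40–60, D 20–40, E <20.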

SMILES	IC50 ([1]; Homo sapiens, MIA PaCa-2, 72 h) [µM]	IC50 [2] [µM]	IC50 [1] [µM]	binding rate [3]
C#Cc1cc2c(nc(C)n2C)c(Cl)c1-c1cccn2c(C(=O)c3cc(F)c(NC(=O)/C=C/CN[C@H]4CC[C@H](OC)CC4)c(F)c3)ccc12 [Example 43, (E)-N-(4-(8-(4-chloro-6-ethynyl-1,2-dimethyl-1H-benzo[d]imidazol-5-yl)indolizine-3-carbonyl)-2,6-difluorophenyl)-4-(((1r,4r)-4-methoxycyclohexyl)amino)but-2-enamide]	0.16	0.088	–	A (A binding rate of 80% or more is rated “A”)
COc1cc2c(cc1-c1cccn3c(C(=O)c4cc(F)c(NC(=O)/C=C/CNC(C)(C)C)c(F)c4)ccc13)nc(C)n2C [Example 5, (E)-4-(tert-butylamino)-N-(2,6-difluoro-4-(8-(6-methoxy-1,2-dimethyl-1H-benzo[d]imidazol-5-yl)indolizine-3-carbonyl)phenyl)but-2-enamide]	0.045	0.075	–	A (A binding rate of 80% or more is rated “A”)
COc1cc2c(ncn2C)c(Cl)c1-c1cccn2c(C(=O)c3cc(F)c(NC(=O)/C=C/CNC(C)(C)C)c(F)c3)ccc12 (single isomer, unassigned) [Example 14-1, (E)-4-(tert-butylamino)-N-(4-(8-(4-chloro-6-methoxy-1-methyl-1H-benzo[d]imidazol-5-yl)indolizine-3-carbonyl)-2,6-difluorophenyl)but-2-enamide]	0.028	0.057	–	A (A binding rate of 80% or more is rated “A”)
CO[C@H]1CC[C@H](NC/C=C/C(=O)Nc2c(F)cc(C(=O)c3ccc4c(-c5c(C(F)(F)F)cc6c(nc(CF)n6C)c5Cl)cccn34)cc2F)CC1 [Example 68]	0.067	0.077	–	A (A binding rate of 80% or more is rated “A”)
Cn1cnc2cc(-c3cccn4c(C(=O)c5cc(F)c(NC(=O)/C=C/CNC6(C)CCOCC6)c(F)c5)ccc34)c(C(F)(F)F)cc21 [Example 11, (E)-N-(2,6-difluoro-4-(8-(1-methyl-6-(trifluoromethyl)-1H-benzo[d]imidazol-5-yl)indolizine-3-carbonyl)phenyl)-4-((4-methyltetrahydro-2H-pyran-4-yl)amino)but-2-enamide]	0.068	0.021	–	A (A binding rate of 80% or more is rated “A”)
Cc1nc2cc(-c3cccn4c(C(=O)c5cc(F)c(NC(=O)/C=C/CNC6(C)CCOCC6)c(F)c5)ccc34)c(C(F)(F)F)cc2n1C [Example 26]	0.082	0.062	–	A (A binding rate of 80% or more is rated “A”)
CO[C@H]1CC[C@H](NC/C=C/C(=O)Nc2c(F)cc(C(=O)c3ccc4c(-c5c(C)cc6c(nc(C)n6C)c5Cl)cccn34)cc2F)CC1 (single isomer, unassigned) [Example 19-2, (E)-N-(4-(8-(4-chloro-1,2,6-trimethyl-1H-benzo[d]imidazol-5-yl)indolizine-3-carbonyl)-2,6-difluorophenyl)-4-(((1r,4r)-4-methoxycyclohexyl)amino)but-2-enamide]	–	0.14	0.16	A (A binding rate of 80% or more is rated “A”)
Cc1nc2cc(-c3cccn4c(C(=O)c5cc(F)c(NC(=O)/C=C/CN[C@H]6CC[C@@H](F)CC6)c(F)c5)ccc34)c(C(F)(F)F)cc2n1C [Example 81]	0.071	0.07	–	A (A binding rate of 80% or more is rated “A”)
CO[C@H]1CC[C@H](NC/C=C/C(=O)Nc2c(F)cc(C(=O)c3cc(CO)c4c(-c5c(C)cc6c(nc(C)n6C)c5Cl)cccn34)cc2F)CC1 [Example 93]	0.13	0.025	–	A (A binding rate of 80% or more is rated “A”)
CO[C@H]1CC[C@H](NC/C=C/C(=O)Nc2c(F)cc(C(=O)c3cc(I)c4c(-c5c(C)cc6c(nc(C)n6C)c5Cl)cccn34)cc2F)CC1 [Example 75, (E)-N-(4-(8-(4-chloro-1,2,6-trimethyl-1H-benzo[d]imidazol-5-yl)-1-iodoindolizine-3-carbonyl)-2,6-difluorophenyl)-4-(((1r,4r)-4-methoxycyclohexyl)amino)but-2-enamide]	0.23	0.037	–	A (A binding rate of 80% or more is rated “A”)
COc1cc(-c2cncn2C)cc(Cl)c1-c1cccn2c(C(=O)c3cc(F)c(NC(=O)/C=C/CN[C@H]4CC[C@H](OC)CC4)c(F)c3)ccc12 [Example 42, (E)-N-(4-(8-(2-chloro-6-methoxy-4-(1-methyl-1H-imidazol-5-yl)phenyl)indolizine-3-carbonyl)-2,6-difluorophenyl)-4-(((1r,4r)-4-methoxycyclohexyl)amino)but-2-enamide]	0.61	0.085	–	A (A binding rate of 80% or more is rated “A”)
COc1cc2c(nc(C)n2C)c(F)c1-c1cccn2c(C(=O)c3cc(F)c(NC(=O)/C=C/CNC(C)(C)C)c(F)c3)ccc12 [Example 46, (E)-4-(tert-butylamino)-N-(2,6-difluoro-4-(8-(4-fluoro-6-methoxy-1,2-dimethyl-1H-benzo[d]imidazol-5-yl)indolizine-3-carbonyl)phenyl)but-2-enamide]	0.024	0.03	–	A (A binding rate of 80% or more is rated “A”)
CO[C@H]1CC[C@H](NC/C=C/C(=O)Nc2c(F)cc(C(=O)c3ccc4c(-c5c(C(F)(F)F)cc6c(ncn6C)c5Cl)cccn34)cc2F)CC1 (single isomer, unassigned) [Example 28-1, (E)-N-(4-(8-(4-chloro-1-methyl-6-(trifluoromethyl)-1H-benzo[d]imidazol-5-yl)indolizine-3-carbonyl)-2,6-difluorophenyl)-4-(((1r,4r)-4-methoxycyclohexyl)amino)but-2-enamide]	–	0.031	0.051	A (A binding rate of 80% or more is rated “A”)

Continued, in another order:

IC50 ([1]; Homo sapiens, MIA PaCa-2, 72 h) [µM]	IC50 [2] [µM]	IC50 [1] [µM]	SMILES	binding rate [3]
–	0.92	0.85	COc1c(-c2cccn3c(C(=O)c4cc(F)c(NC(=O)/C=C/CN[C@H]5CC[C@H](OC)CC5)c(F)c4)cnc23)c(C(F)(F)F)cc2c1nc(C)n2C (single isomer, unassigned) [Example 83-2, (E)-N-(2,6-difluoro-4-(8-(4-methoxy-1,2-dimethyl-6-(trifluoromethyl)-1H-benzo[d]imidazol-5-yl)imidazo[1,2-a]pyridine-3-carbonyl)phenyl)-4-(((1r,4r)-4-methoxycyclohexyl)amino)but-2-enamide]	B (a binding rate of 60% or more and less than 80% is rated “B”)
–	1.45	0.943	COc1c(-c2cccn3c(C(=O)c4cc(F)c(NC(=O)/C=C/CNC5(C)CC5)c(F)c4)cnc23)c(C(F)(F)F)cc2c1nc(C)n2C (single isomer, unassigned) [Example 105-2, (E)-N-(2,6-difluoro-4-(8-(4-methoxy-1,2-dimethyl-6-(trifluoromethyl)-1H-benzo[d]imidazol-5-yl)imidazo[1,2-a]pyridine-3-carbonyl)phenyl)-4-((1-methylcyclopropyl)amino)but-2-enamide]	C (a binding rate of 40% or more and less than 60% is rated “C”)
–	0.061	0.12	COc1cc(N2CCCC2=O)cc(Cl)c1-c1cccn2c(C(=O)c3cc(F)c(NC(=O)/C=C/CN[C@H]4CC[C@H](OC)CC4)c(F)c3)ccc12 (single isomer, unassigned) [Example 30-2, (E)-N-(4-(8-(2-chloro-6-methoxy-4-(2-oxopyrrolidin-1-yl)phenyl)indolizine-3-carbonyl)-2,6-difluorophenyl)-4-(((1r,4r)-4-methoxycyclohexyl)amino)but-2-enamide]	A (A binding rate of 80% or more is rated “A”)
–	0.021	0.014	CO[C@H]1CC[C@H](NC/C=C/C(=O)Nc2c(F)cc(C(=O)c3ccc4c(-c5c(C(F)(F)F)cc6c(nc(C)n6C)c5Cl)cccn34)cc2F)CC1 (single isomer, unassigned) [Example 32-1, (E)-N-(4-(8-(4-chloro-1,2-dimethyl-6-(trifluoromethyl)-1H-benzo[d]imidazol-5-yl)indolizine-3-carbonyl)-2,6-difluorophenyl)-4-(((1r,4r)-4-methoxycyclohexyl)amino)but-2-enamide]	A (A binding rate of 80% or more is rated “A”)
–	0.42	0.99	CO[C@H]1CC[C@H](NC/C=C/C(=O)Nc2c(F)cc(C(=O)c3ccc4c(-c5c(C(F)(F)F)cc6c(nc(C)n6C)c5Cl)cccn34)cc2F)CC1 (single isomer, unassigned) [Example 32-2, (E)-N-(4-(8-(4-chloro-1,2-dimethyl-6-(trifluoromethyl)-1H-benzo[d]imidazol-5-yl)indolizine-3-carbonyl)-2,6-difluorophenyl)-4-(((1r,4r)-4-methoxycyclohexyl)amino)but-2-enamide]	A (A binding rate of 80% or more is rated “A”)
